Laboratory results: patent EP0974354A1, “Artemisinin derivatives” (The Hong Kong University of Science & Technology, priority 1998, dated 2000)
≈ marks a conversion by molar mass, not a printed value. Where “and” joins values, the source holds several entries; their conditions need not be identical. Equal values may be shown once. Read-outs that look alike come from different tables or passages of the source.

Tests used:
[1] = test system: Plasmodium Falciparum W2 Strain (Chloroquine resistant); experiment: In vitro screening against Plasmodium falciparum, radiolabelled hypoxanthine incorporation, W2 strain; type: cell-based; settings: for IC50 / IC90: Plasmodium falciparum; for IC50: read-out: In vitro activity: IC50, W2 Strain (Chloroquine resistant); for IC90: read-out: In vitro activity: IC90, W2 Strain (Chloroquine resistant)
Method: (§1) Two parasite strains - W2 resistant to chloroquine, and D6 sensitive to chloroquine but resistant to mefloquine were used.
(§2) The assay relies on incorporation of radiolabelled hypoxanthine by the parasite and inhibition of incorporation is attributed to activity of known or candidate antimalarial drugs. For each assay, proven antimalarials such as chloroquine, mefloquine, quinine, artemisinin and pyrimethamine were used as controls. The incubation period was 66 hours, and the starting parasitemia was 0.2% with 1% hematocrit. The medium was an RPMI-1640 culture with no folate or p-aminobenzoic acid. […] If a compound was submitted with no prior knowledge of activity, it was dissolved directly in dimethyl sulphoxide (DMSO), and diluted 400 fold with complete culture medium. […] These dilutions were performed automatically by a Biomek 1000 Liquid Handling System in 96-well microtiter plates. The diluted drugs were then transferred to test plates, 200 µl of parasitized erythrocytes were added, and incubated at 37°C in a controlled environment of 5% CO2, 5% O2 and 90% N2. After 42 hours, 25 µl of ^3H-hypoxanthine was added, and the plates incubated for an additional 24 hours. After 66 hours, the plates were frozen at -70°C to lyse the red cells, and then thawed and harvested onto glass fiber filter mats in a 96-well harvester. The filter mats were then counted in a scintillation counter.
(§3) A prescreen format can be used wherein a 3-dilution assay may be used to determine activity at high medium or low concentrations. The concentrations were selected as 50,000, 500 and 50 ng ml^-1. These were performed in duplicate on a 96-well format plate with 14 test compounds and one known (standard) compound per plate. The system was automated with a Biomek diluter for mixing and diluting the drugs, and adding drugs and parasites to a test plate.
(§4) In the prescreen format, if the […] […] If the AF has a ">", then the IC value is greater than the prescreen dilution value; thus "AF>250" means that the IC value is greater than 250 ng ml^-1 and no further screening is carried out. In such cases, values of 0.00 are entered for IC values.

[2] = test system: Plasmodium Falciparum D6 Strain (Chloroquine sensitive); experiment: In vitro screening against Plasmodium falciparum, radiolabelled hypoxanthine incorporation, D6 strain; type: cell-based; settings: for IC50 / IC90: Plasmodium falciparum
Method: as §1, §2, §3, §4

[3] = test system: parasite of the genus Plasmodium; experiment: Antimalarial activity, general statement in the description, test not specified; settings: qualitative statement
[4] = W2 Strain (Chloroquine resistant), 66 hours incubation, Albumax medium
[5] = D6 Strain (Chloroquine sensitive), 66 hours incubation, Albumax medium
[6] = W2, 66 h, 66 hours incubation, Albumax medium
[7] = D6, 66 h, D6 Strain (Chloroquine sensitive), 66 hours incubation, Albumax medium, read-out: In vitro activity: IC50
[8] = D6, 66 h, D6 Strain (Chloroquine sensitive), 66 hours incubation, Albumax medium, read-out: In vitro activity: IC90

Row | In vitro activity: IC50 [2, 5] [ng/mL] | In vitro activity: IC90 [2, 5] [ng/mL] | IC50 [1, 6] [ng/mL] | IC90 [1, 6] [ng/mL] | In vitro activity: IC50 ([1]; W2, 66 h) [ng/mL] | In vitro activity: IC90 ([1]; W2, 66 h) [ng/mL] | IC50 [2, 7] [ng/mL] | IC90 [2, 8] [ng/mL] | Structure (SMILES) | In vitro activity: (IC10) [2, 5] | In vitro activity: (IC10) ([1]; W2, 66 h) [ng/mL] | further results
1 | – | – | 0.67 (≈ 1.4 nM) | 0.81 (≈ 1.69 nM) | – | – | 0.71 (≈ 1.48 nM) | 0.93 (≈ 1.94 nM) | C[C@H]1[C@@H](Oc2ccnc3cc(C(F)(F)F)ccc23)O[C@@H]2O[C@@]3(C)CC[C@H]4[C@H](C)CC[C@@H]1[C@@]24OO3 [Example 2, 10β-[4'-(7'-trifluoromethylquinolinoxy)]dihydroartemisinin] | 0.55 ng/mL | 0.56 | antimalarial activity [3]: particularly interesting antimalarial activity
2 | – | – | 0.83 (≈ 2.11 nM) | 1.08 (≈ 2.75 nM) | – | – | 0.75 (≈ 1.91 nM) | 1.22 (≈ 3.11 nM) | C[C@H]1[C@@H](OCc2ccccc2F)O[C@@H]2O[C@@]3(C)CC[C@H]4[C@H](C)CC[C@@H]1[C@@]24OO3 [Example 8] | 0.46 ng/mL | 0.63 | –
3 | – | – | 0.45 (≈ 1.15 nM) | 0.59 (≈ 1.5 nM) | – | – | 0.36 (≈ 0.917 nM) | 1.7 (≈ 4.33 nM) | C[C@H]1[C@@H](OCc2cccc(F)c2)O[C@@H]2O[C@@]3(C)CC[C@H]4[C@H](C)CC[C@@H]1[C@@]24OO3 [Example 9] | 0.08 ng/mL | 0.35 | –
4 | – | – | 0.25 (≈ 0.637 nM) | 0.86 (≈ 2.19 nM) | – | – | 0.34 (≈ 0.866 nM) | 0.58 (≈ 1.48 nM) | C[C@H]1[C@@H](OCc2ccc(F)cc2)O[C@@H]2O[C@@]3(C)CC[C@H]4[C@H](C)CC[C@@H]1[C@@]24OO3 [Example 10] | 0.20 ng/mL | 0.07 | –
5 | – | – | 132 (≈ 277 nM) | 173 (≈ 365 nM) | 187.76 | 301.34 | – | – | C[C@H]1[C@@H](OCc2c3ccccc3cc3ccccc23)O[C@@H]2O[C@@]3(C)CC[C@H]4[C@H](C)CC[C@@H]1[C@@]24OO3 [Example 12] | – | – | In vitro activity: (IC10) ([2]; D6, 66 h): 102.79 ng/mL; IC50 ([2]; D6, 66 h, read-out: In vitro activity: IC50, D6 Strain (Chloroquine sensitive), 66 hours incubation, Albumax medium): 136 ng/mL (≈ 286 nM); IC90 ([2]; D6, 66 h, read-out: In vitro activity: IC90, D6 Strain (Chloroquine sensitive), 66 hours incubation, Albumax medium): 179 ng/mL (≈ 378 nM)
6 | – | – | 0.62 (≈ 1.31 nM) | 0.79 (≈ 1.66 nM) | – | – | 0.58 (≈ 1.22 nM) | 0.77 (≈ 1.62 nM) | C[C@H]1[C@@H](OCc2cccc3c2ccc2ccccc23)O[C@@H]2O[C@@]3(C)CC[C@H]4[C@H](C)CC[C@@H]1[C@@]24OO3 [Example 13] | 0.44 ng/mL | 0.50 | –
7 | – | – | 17.2 (≈ 34.5 nM) | 24.9 (≈ 49.9 nM) | – | – | 37.9 (≈ 76.1 nM) | 49.5 (≈ 99.2 nM) | C[C@H]1[C@@H](OCc2ccc3ccc4cccc5ccc2c3c45)O[C@@H]2O[C@@]3(C)CC[C@H]4[C@H](C)CC[C@@H]1[C@@]24OO3 [Example 14] | 29.09 ng/mL | 11.90 | –
8 | 0.61 | 0.91 | 1.24 (≈ 3.01 nM) | 6.45 (≈ 15.7 nM) | 2.03 | 9.11 | 0.43 (≈ 1.04 nM) | 0.8 (≈ 1.94 nM) | C[C@H]1[C@@H](Oc2ccnc3ccccc23)O[C@@H]2O[C@@]3(C)CC[C@H]4[C@H](C)CC[C@@H]1[C@@]24OO3 [Example 15] | 0.23 ng/mL and 0.41 ng/mL | – | –

The remaining lines, values behind:

Row | Structure (SMILES) | In vitro activity: IC50 [2, 5] [ng/mL] | In vitro activity: IC90 [2, 5] [ng/mL] | IC50 [1, 6] [ng/mL] | IC90 [1, 6] [ng/mL] | In vitro activity: IC50 ([1]; W2, 66 h) [ng/mL] | In vitro activity: IC90 ([1]; W2, 66 h) [ng/mL] | IC50 [2, 7] [ng/mL] | IC90 [2, 8] [ng/mL] | In vitro activity: (IC10) [2, 5] | In vitro activity: (IC10) ([1]; W2, 66 h) [ng/mL] | further results
9 | CC1CCC2C(C)C(OCc3ccc4ccccc4c3)OC3OC4(C)CCC1C32OO4 (single isomer, unassigned) [3(α-isomer), 10α-[(2'-naphthylmethyl)oxy]dihydroartemisinin] | 1.24 | 1.67 | – | – | – | – | – | – | 0.93 ng/mL | – | In vitro activity: (IC10) [1, 4]: 0.62 ng/mL; In vitro activity: IC50 [1, 4]: 1.54 ng/mL; In vitro activity: IC90 [1, 4]: 3.83 ng/mL
10 | C[C@H]1[C@@H](OCc2ccc3ccccc3c2)O[C@@H]2O[C@@]3(C)CC[C@H]4[C@H](C)CC[C@@H]1[C@@]24OO3 [3(β-isomer), 10β-[(2'-naphthylmethyl)oxy]dihydroartemisinin] | 0.64 | 0.80 | 0.64 (≈ 1.51 nM) | 0.78 (≈ 1.84 nM) | 0.63 | 1.25 | 0.4 (≈ 0.942 nM) | 0.53 (≈ 1.25 nM) | 0.31 ng/mL and 0.51 ng/mL | – | –
11 | CC1CCC2C(C)C(Oc3ccnc4ccccc34)OC3OC4(C)CCC1C32OO4 (stereo not drawn) [10β-(4'-Quinolinoxy)dihydroartemisinin] | – | – | – | – | – | – | – | – | – | – | antimalarial activity [3]: particularly interesting antimalarial activity
12 | C[C@H]1[C@H](OCc2cccc3ccccc23)O[C@@H]2O[C@@]3(C)CC[C@H]4[C@H](C)CC[C@@H]1[C@@]24OO3 [11(α-isomer)] | 1.47 | 1.81 | 0.67 (≈ 1.58 nM) | 1.01 (≈ 2.38 nM) | 0.70 | 1.17 | 1.42 (≈ 3.34 nM) | 1.97 (≈ 4.64 nM) | 1.03 ng/mL and 1.20 ng/mL | – | –
13 | C[C@H]1[C@@H](OCC(F)(F)F)O[C@@H]2O[C@@]3(C)CC[C@H]4[C@H](C)CC[C@@H]1[C@@]24OO3 [Example 1, 10β-[(2',2',2'-trifluoroethyl)oxy]dihydroartemisinin] | – | – | 0.26 (≈ 0.71 nM) | – | – | – | – | – | 0.57 ng/mL | – | In vitro activity: (IC10) [1, 4]: 0.19 ng/mL and 0.20 ng/mL; In vitro activity: IC50 [1, 4]: 0.51 ng/mL; IC50 ([2]; D6, 66 h, read-out: In vitro activity: IC50): 0.77 ng/mL (≈ 2.1 nM); IC90 ([2]; D6, 66 h, read-out: In vitro activity: IC90): 1.04 ng/mL (≈ 2.84 nM)
